Legend:
[1] = Partition coefficient, log P of the compound; type: physicochemical; conditions: octanol/water
[2] = system: PBMC; assay: Growth inhibition of human PBMC after 48 hrs by XTT assay; type: cell-based
[3] = species: Homo sapiens; assay: Binding affinity to DNA

- logP [1]: 1.05
- Kb [3]: 8.3 10^5/M
Compound: CC1=C(/C=C/C(C)=C\C=C\C(C)=C\C=N/NC(N)=S)C(C)(C)CCC1
- Activity [2]: Non-toxic

Source: ChEMBL document CHEMBL1147188, “Metal complexes of retinoid derivatives with antiproliferative activity: synthesis, characterization and DNA interaction studies” (Eur J Med Chem, 2007)
